Test results as given in ChEMBL document CHEMBL4002558, “Characterization of a Bioactive Acyclotide from Palicourea rigida” (J Nat Prod, 2016).
Positions of bridges follow the written chain, without caps; N, C: chain ends. Residues, ends and D or L forms follow the SMILES beside them.

Tested on: MCF7
Assay: Cytotoxicity against human MCF7 cells assessed as decrease in cell viability at 10 uM after 72 hrs by MTT assay
Assay type: functional, cell-based
Settings: MCF7, 72 h

Row | SMILES | IC50
1 | CC[C@H](C)[C@@H]1NC(=O)[C@@H]2CSSC[C@@H](C(=O)N[C@@H](Cc3ccc(O)cc3)C(=O)N[C@@H](CCCNC(=N)N)C(=O)N[C@@H](CC(=O)O)C(=O)O)NC(=O)[C@H](C(C)C)NC(=O)[C@H](CCCCN)NC(=O)[C@H](CC(N)=O)NC(=O)[C@H](CCCCN)NC(=O)[C@H]3CSSC[C@H](NC(=O)[C@H](CO)NC(=O)[C@H](CCC(=O)O)NC(=O)CNC(=O)[C@@H](NC(=O)[C@@H]4CCCN4C(=O)[C@@H](NC(=O)[C@@H](NC(=O)CN)C(C)C)[C@@H](C)CC)CSSC[C@@H](NC(=O)CNC(=O)[C@H](CC(C)C)NC(=O)[C@H](C(C)C)NC(=O)[C@H](CO)NC(=O)[C@H](CO)NC1=O)C(=O)N[C@@H](CO)C(=O)N3)C(=O)N[C@@H](C(C)C)C(=O)N[C@@H](Cc1ccccc1)C(=O)N[C@@H]([C@@H](C)CC)C(=O)N1CCC[C@H]1C(=O)N2 | 0.64 µM
2 | CC[C@H](C)[C@H](NC(=O)CN)C(=O)N[C@@H](C)C(=O)N[C@H]1CSSC[C@H]2NC(=O)CNC(=O)[C@@H]3CCCN3C(=O)[C@H]([C@@H](C)CC)NC(=O)[C@H](Cc3ccccc3)NC(=O)[C@@H]3CSSC[C@@H](C(=O)N[C@@H](Cc4ccc(O)cc4)C(=O)N[C@@H](Cc4ccccc4)C(=O)N[C@@H](CC(N)=O)C(=O)O)NC(=O)[C@H](C(C)C)NC(=O)[C@H](CCCCN)NC(=O)[C@H](CO)NC(=O)[C@H](CCCCN)NC(=O)[C@H](CSSC[C@H](NC(=O)[C@H](CO)NC(=O)[C@H](CCC(=O)O)NC(=O)CNC1=O)C(=O)N[C@@H](C(C)C)C(=O)N[C@@H](Cc1ccccc1)C(=O)N[C@@H](CC(C)C)C(=O)NCC(=O)N3)NC(=O)[C@H](CO)N2 | 7.77 µM
3 | CC(C)C[C@H](NC(=O)[C@@H](N)CCCCN)C(=O)N[C@H]1CSSC[C@@H]2NC(=O)[C@H](CO)NC(=O)[C@H](CS)NC(=O)CNC(=O)[C@@H]3CCCN3C(=O)[C@H]([C@@H](C)O)NC(=O)[C@H](Cc3ccc(O)cc3)NC(=O)[C@@H]3CSSC[C@@H](C(=O)N[C@@H](CCCCN)C(=O)O)NC(=O)[C@H](Cc4ccccc4)NC(=O)[C@@H]4CCCN4C(=O)[C@H](Cc4ccc(O)cc4)NC(=O)[C@H](CO)NC(=O)[C@H](CSSC[C@H](NC(=O)[C@H]([C@@H](C)O)NC(=O)[C@H](CCC(=O)O)NC(=O)CNC1=O)C(=O)N[C@@H](Cc1ccccc1)C(=O)N[C@@H](CCCCN)C(=O)N[C@@H](Cc1ccccc1)C(=O)N[C@@H](CCCCN)C(=O)N3)NC(=O)[C@H](CO)NC2=O (H-KLCGETCFKFKCYTPGCSCSCSYPFCK-OH; disulfide 3-19, 7-21, 12-26) | 2.98 µM
